Six molecules from patent publication US8563571B2, “Crystalline forms of oxymorphone hydrochloride” (Noramco, Inc., priority 2010, dated 2013) can be followed below.

The nature of data set [1]: Dynamic vapor moisture sorption/desorption analysis. Particulars: for Moisture uptake by weight: between 75% and 95% RH, sorption; for hysteresis during the desorption cycle: desorption cycle (Form B: between 45% RH and 5% RH); for relative humidity above which hygroscopicity was exhibited: dynamic vapor sorption/desorption, 5% to 95% RH. Format: physicochemical. The method, then:
Dynamic vapor sorption/desorption data were collected on a VTI SGA-100 Vapor Sorption Analyzer. Sorption and desorption data were collected over a range of 5% to 95% relative humidity (RH) at 10% RH intervals under a nitrogen purge. Samples were not dried prior to analysis. Equilibrium criteria used for analysis were less than 0.0100% weight change in 5 minutes, with a maximum equilibration time of 3 hours if the weight criterion was not met. Data were not corrected for the initial moisture content of the samples. NaCl and PVP were used as calibration standards.
Dynamic vapor moisture sorption/desorption data was collected for representative samples for oxymorphone HCl Form A and Form B, as shown in FIG. 13 and FIG. 16, respectively.

Data set [2] is described as follows: Mechanical grinding studies (physical stability of crystalline form).
Data set [3] in a line: Physical stability at ambient temperature storage (re-analysis of crystalline form).
The mark [4] stands for this setting: re-analyzed after approximately 12 months.

With `CN1CC[C@]23c4c5ccc(O)c4O[C@H]2C(=O)CC[C@@]3(O)[C@H]1C5.Cl` [Form A, 4,5-epoxy-3,14-dihydroxy-17-methyl-(5α)-morphinan-6-one hydrochloride (1:1), reference compound], the “moisture retained at the end of the desorption cycle” value in data set [1] (at 5% RH, end of cycle) was 2.4%. In addition, in data set [1], the “Moisture uptake by weight” value is given as “about 50%”, the “hysteresis during the desorption cycle” value is given as “hysteresis was observed” and the “relative humidity above which hygroscopicity was exhibited” value is “above 75%”.
For the molecule `CN1CC[C@]23c4c5ccc(O)c4O[C@H]2C(=O)CC[C@@]3(O)[C@H]1C5.Cl` [Form B, 4,5-epoxy-3,14-dihydroxy-17-methyl-(5α)-morphinan-6-one hydrochloride (1:1)], in data set [2] (in the presence of a small quantity of water), the “physical stability under mechanical grinding” value was “physically stable”. For the same molecule, in data set [2] (mechanically ground in the absence of water), the “physical stability under mechanical grinding” value is “partially converted to Form A”. In data set [1], the “Moisture uptake by weight” value is “about 43%”, the “hysteresis during the desorption cycle” value is given as “no hysteresis was observed” and the “relative humidity above which hygroscopicity was exhibited” value is given as “above 75%”. For the same molecule, the “moisture content at the end of the cycle (in words)” value in data set [1] (end of desorption cycle) is given as “returned to the initial moisture content”.
For the molecule `CN1CC[C@]23c4c5ccc(O)c4O[C@H]2C(=O)CC[C@@]3(O)[C@H]1C5.Cl` [Form C, 4,5-epoxy-3,14-dihydroxy-17-methyl-(5α)-morphinan-6-one hydrochloride (1:1)], the “form found on re-analysis by pXRD after storage in ambient conditions” value in data set [3] (Example 8 sample, storage time not given) was “remain Form C”. In addition, the “stability at ambient temperature storage” value in data set [3] (setting [4]) is listed as “stable”.
Regarding `CN1CC[C@]23c4c5ccc(O)c4O[C@H]2C(=O)CC[C@@]3(O)[C@H]1C5.Cl` [Form D, 4,5-epoxy-3,14-dihydroxy-17-methyl-(5α)-morphinan-6-one hydrochloride (1:1)], in data set [3] (after approximately 12 months), the “crystalline form(s) converted to on ambient temperature storage” value (“crystalline form(s) converted” below) is “a mixture of Form A and Form B”. Besides, the “stability at ambient temperature storage” value in data set [3] (setting [4]) is on record as “unstable”.
Take `CN1CC[C@]23c4c5ccc(O)c4O[C@H]2C(=O)CC[C@@]3(O)[C@H]1C5.Cl` [Form F, 4,5-epoxy-3,14-dihydroxy-17-methyl-(5α)-morphinan-6-one hydrochloride (1:1)]: in data set [3] (after approximately 10 months), the “crystalline form(s) converted” value was “converting to Form A” and the “stability at ambient temperature storage” value is listed as “unstable”.
For `CN1CC[C@]23c4c5ccc(O)c4O[C@H]2C(=O)CC[C@@]3(O)[C@H]1C5.Cl` [Form L, 4,5-epoxy-3,14-dihydroxy-17-methyl-(5α)-morphinan-6-one hydrochloride (1:1)], in data set [3] (after approximately 10 weeks), the “crystalline form(s) converted” value is “a mixture of crystalline forms, one of which is Form A (a sesquihydrate) and the other is a monohydrate/hemi-ethanolate”; the “stability at ambient temperature storage” value is recorded as “unstable”.
